In US20200023001A1, “GlycoFix (Structurally And Functionally Repaired Endothelial Glycocalyx)” (Northeastern University, priority 2018, published 2020):

System: RFPEC
Assay: PEG-AuNP uptake by RFPEC under glycocalyx conditions (confocal red fluorescence)
Type: cell-based, rat
Settings: repaired glycocalyx (Hep III, then 59 μg/mL exogenous HS); 550 μg/mL PEG-AuNP, 16 hours
Protocol: RFPEC Culture. A rat fat pad endothelial cell (RFPEC) line^37 was utilized, originally isolated from rat epididymal fat pads by Dr. Mia Thi of Albert Einstein College of Medicine (Bronx, N.Y., USA). RFPECs were selected for their ability to naturally express a robust glycocalyx.^38 These ECs were cultured in tissue culture flasks at 37° C. and 5% CO2 in a humidified environment with Dulbecco's Modified Eagle's Medium (DMEM) supplemented with 10% fetal bovine serum (FBS) and 1% penicillin-streptomycin, all purchased from Thermo Fisher Scientific (Waltham, Mass., USA). For 3-(4,5-dimethylthiazol-2-yl)-5-(3-carboxymethoxyphenyl)-2-(4-sulfophenyl)-2H-tetrazolium (MTS) assays (Sigma-Aldrich Co., St Louis, Mo., USA), RFPECs were seeded at 3.7×10^4 cells/cm^2 in tissue culture-treated, 96-well plates (Falcon; Thermo Fisher Scientific) and imaged on a SpectraMax M3 plate reader to show cell viability and metabolic activity. […]
PEG-AuNP. […] After dialysis in 12-14 kDa molecular weight cutoff tubes (EMD Millipore, Billerica, Mass., USA) and lyophilization, an Alexa Fluor 647 N-hydroxysuccinimide (NHS) ester (succinimidyl ester) was conjugated onto the NH2 functional groups on the AuNP to allow for visualization under fluorescence. […] PEG-AuNP fluorescence activity was confirmed using a Jobin Yvon Fluoromax 4. […]

heparan sulfate [HS] was tested, and the “PEG-AuNP uptake relative to cells with healthy, intact glycocalyx” value was 1.3±0.3 fold.
